From patent EP0533344B1, “Methanoanthracenes as dopamine antagonists” (ZENECA LIMITED, priority 1991, dated 1993)
Like-named read-outs stand apart in the source and are kept apart here.

Experiments:
[1] = target: T1, dopamine (DA) D-2 receptor subtype (Rattus norvegicus, UniProt P61169); test: Test A: dopamine D-2 receptor binding assay, displacement of [3H]-spiperone
T1 construct: Specifically, rat striatal membranes were used; from tissue; host or cells: rat striatum (membranes)
Excerpt: (§1) The compounds of Formula I are antagonists of dopamine D-2 receptors, and as such are predicted to be useful as antipsychotic drugs. D-2 antagonism can be shown by standard tests such as antagonism of [^3H]-spiperone binding (Test A), and/or antagonism of apomorphine-induced climbing and apomorphine- induced disruption of swimming (Test B).
The receptor binding assay used to measure affinities of various compounds for the dopamine (DA) D-2 receptor subtype was that described by Saller and Salama in J Pharmacol Exp Ther 236, page 714, 1986.
Specifically, rat striatal membranes were used. Tissue membranes were prepared and washed once in 50 volumes of the appropriate Tris HCl buffer. For the D-2 receptor binding assay, striatal membranes were suspended to a final concentration of 8 mg/ml in 50 mM Tris HCl with 40 nM ketanserin, pH 7.7. Nonspecific binding to D-2 receptors was measured in the presence of 1.0 µM (+)-butaclamol. IC50s (drug concentration which produced a 50% displacement) for the displacement of 0.5 nM [^3H] spiperone were determined using at least five concentrations of each drug in triplicate. One-half milliliter of membrane suspension was incubated with the compound of interest or vehicle or nonspecific drug, ligand and appropriate Tris HCl buffer. […] The amount of drug bound to the membranes was assessed using liquid scintillation counting techniques. […]

[2] = test system: Female Swiss-Webster mice; test: Test B: antagonism of apomorphine-induced climbing and apomorphine-induced disruption of swimming; type: in vivo; conditions: Mus musculus, po, read-out: minimum effective dose
Description: as §1
Female Swiss-Webster mice weighing approximately 20 g were deprived of food for approximately 24 h and then dosed orally with various doses of either the vehicle or test agent over a range of doses (N = 20 mice per treatment group). Thirty minutes later they were dosed with apomorphine HCl at 1.25 mg/kg, sc, and placed into climbing cages. The climbing cages were 9 cm wide, 15 cm deep and 30 cm high. One wall had 27 horizontal rungs spaced 1 cm apart. Thirteen minutes after apomorphine each mouse was observed continuously for 1 min and the highest and lowest rung reached by its front paws was recorded. […] (The highest and lowest scores were 27 and 0, respectively.) Immediately after the 1-min climbing observation period each mouse was placed into a circular swimming tank for 2 min and the number of swims was counted. […] A "swim" was scored each time a mouse swam from one mark to the other. The mice were observed through overhead mirrors and the number of 180 degree swims was recorded for each mouse. […]

T1 sequence (P61169 whole entry): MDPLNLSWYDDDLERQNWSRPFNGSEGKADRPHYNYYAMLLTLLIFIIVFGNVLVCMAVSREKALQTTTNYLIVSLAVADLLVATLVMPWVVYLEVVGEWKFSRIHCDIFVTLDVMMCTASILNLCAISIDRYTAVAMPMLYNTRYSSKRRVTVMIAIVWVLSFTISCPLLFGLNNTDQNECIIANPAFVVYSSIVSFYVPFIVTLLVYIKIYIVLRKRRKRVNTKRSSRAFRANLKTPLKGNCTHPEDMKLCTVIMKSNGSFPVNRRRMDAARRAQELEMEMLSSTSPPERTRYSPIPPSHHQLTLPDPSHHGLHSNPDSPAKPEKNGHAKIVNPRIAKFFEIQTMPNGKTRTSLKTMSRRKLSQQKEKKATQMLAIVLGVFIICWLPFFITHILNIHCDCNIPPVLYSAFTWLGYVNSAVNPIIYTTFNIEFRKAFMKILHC

IC50 ([1]; displacement of 0.5 nM [3H] spiperone, rat striatal membranes, 37°C for 15 min, typical result, read-out: IC50) [nM] | SMILES | IC50 [1] [nM] | minimal effective dose [2] [mg/kg] | minimal effective dose ([2]; dosed orally 30 min before apomorphine HCl 1.25 mg/kg sc, decreased climbing score with increased swimming score, typical result) [mg/kg]
– | OC1(c2cccnc2)CCN(CC23CC(c4ccccc42)c2ccccc23)CC1 [Example 5, 1-(9,10-Dihydro-9,10-methanoanthracen-9-ylmethyl)-4-(3-pyridyl)piperidin-4-ol] | 12 | 20 | –
3 | CC(C)(C)C1(O)CCN(CC23CC(c4ccccc42)c2ccc(Cl)cc23)CC1 (stereo not shown) [Example 49, 1-(2-Chloro-9,10-dihydro-9,10-methanoanthracen-9-ylmethyl)-4-(1,1-dimethylethyl)piperidin-4-ol] | – | – | 1.3
